According to patent US20100111867A1, “CARBORANE-PHOSPHONIUM COMPOUNDS AND THEIR USE IN BORON NEUTRON CAPTURE THERAPY AND IMAGING” (THE UNIVERSITY OF SYDNEY, priority 2007, published 2010):

Key:
[1] = system: SF268 (human glioblastoma) cell line; assay: Preliminary in vitro cytotoxicity screening against SF268 cell line; assay type: cell-based
Source text: In contrast to the 1,12-carborane derivative 4, the 1,2- and 1,7-isomers undergo a deboronation reaction in polar solvents to afford the corresponding zwitterionic nido-carborane phosphonium species.

[2] = Deboronation of closo-carborane phosphonium salts in polar solvents; assay type: physicochemical; settings: polar solvents such as DMSO
Source text: The deboronation reaction was not observed for 4, which contains 1,12-carborane. The inventors hypothesise that 4 is highly resistant to the deboronation reaction because no boron atoms within the cluster are bonded to two adjacent and electronegative carbon atoms. The facile deboronation of closo-1,2-carborane under mild, non-basic conditions is known with alcohols, water and acids (E. Svantesson, J. Pettersson, Å. Olin, K. Markides, S. Sjöberg, Acta Chem. Scand., 1999, 53, 731. V. A. Ol'shevskaya, R. Ayuob, Z. G. Brechko, P. V. Petrovskii, E. G. Kononova, G. L. Levit, V. P. Krasnov, V. N. Charushin, O. N. Chupakhin, V. N. Kalinin, J. Organomet. Chem., 2005, 690, 2761. Y.-J. Lee, J.-D. Lee, J. Ko, S.-H. Kim, S. O. Kang, Chem. Commun., 2003, 1364) and has also been observed when functional groups located α- to the cage are electron-withdrawing and the compounds are exposed to polar solvents containing small amounts of H2O or MeOH (J. J. Schaeck, S. B. Kahl, Inorg. Chem., 1999, 38, 204). In the present case, the deboronation reactions occur in polar solutions such as dry DMF and thus most likely proceed by nucleophilic attack of the iodide counter-ion on the most electrophilic boron atoms in the cage, i.e. B3 (or B6) for 1,2-carborane and B2 (or B3) for 1,7-carborane.

Row | Compound | GI50 [1] [µM] | deboronation reaction to nido-carborane zwitterion [2]
1 | C[P+](c1ccccc1)(c1ccccc1)c1ccccc1 [TPMP, triphenylmethylphosphonium, reference compound] | 12.5 | 
2 | methyldiphenyl(1,2-dicarba-closo-dodecaboranyl)phosphonium iodide [Compound 5] |  | spontaneously deboronate
3 | methyldiphenyl(1,7-dicarba-closo-dodecaboranyl)phosphonium iodide [Compound 6] |  | spontaneously deboronate
4 | methyldiphenyl(1,12-dicarba-closo-dodecaboranyl)phosphonium iodide [Compound 4] | > 40 | not observed
